Patent publication US4496576A, “Compositions of p-hydroxybenzoic acid esters and methods of preparation and use” (priority 1983, dated 1985)
Converted amounts (≈) assume the structure as drawn. Where two headings read alike, the source gives them in different places.

What was measured:
[1] = tested on: Penicillium chrysogenum ATCC 9480; test: minimum inhibitory concentration (agar plate growth inhibition); format: cell-based
Description: (§1) The mixture or composition prepared as in Example 1 was tested to determine the minimum inhibitory concentration (MIC) of the composition against various microorganisms (i.e., bacteria, yeast and fungi) according to the following procedure:
(§2) (1) Tryptic Soy Agar (TSA) was prepared according to the manufacturer's directions by suspending 40 g TSA in cold deionized water (1 liter). The suspension was heated to boiling in order to dissolve completely and then autoclaved for 15 minutes at 15 pounds pressure at 121° C.
(§3) (2) After autoclaving, the media was cooled to 45° C. in a water bath.
(§4) (3) At this point, the mixture was aseptically added to the TSA at different levels in order to obtain the desired test concentrations.
(§5) (2) The fungus inoculum consisted of 0.1 ml of a spore-saline suspension harvested by gently rubbing the spores from a 1-week old Sabourand dextrose agar slant incubated at 25° C. with sterile saline (10-10 CFU/ml).
(§6) (3) A sterile Dacron swab was used to spread the inoculum evenly over the entire agar surface.
(§7) (2) The fungus plates were incubated at 30° C. for 72-96 hours.

[2] = tested on: Trichophyton mentagrophytes; test: as above; format: cell-based
Description: as §1, §2, §3, §4, §5, §6, §7

[3] = tested on: Aspergillus niger ATCC 9642; test: as above; format: cell-based
Description: as §1, §2, §3, §4, §5, §6, §7

[4] = tested on: Pseudomonas aeruginosa ATCC 14502; test: as above; format: cell-based
Description: as §1, §2, §3, §4
(§8) (1) The bacteria and yeast inoculum consisted of 0.1 ml of a 1:100 saline dilution of an overnight TSB broth culture (10-10 CFU/ml). CFU=Colony Forming Units.
as §6
(§9) (1) The bacteria and yeast plates were incubated at 35° C. for 48 hours.

[5] = tested on: Staphylococcus epidermidis ATCC 1228; test: as above; format: cell-based
Description: as §1, §2, §3, §4, §8, §6, §9

Pseudomonas stutzeri = test: as above; format: cell-based; settings: Stutzerimonas stutzeri, 48 h
Description: as §1, §2, §3, §4, §8, §6, §9

Streptococcus faecalis = test: as above; format: cell-based; settings: Enterococcus faecalis, 48 h
Description: as §1, §2, §3, §4, §8, §6, §9

[6] = tested on: Salmonella typhosa ATCC 6539; test: as above; format: cell-based; settings: Salmonella enterica, 48 h
Description: as §1, §2, §3, §4, §8, §6, §9

[7] = tested on: Enterobacter cloacae ATCC 23355; test: as above; format: cell-based
Description: as §1, §2, §3, §4, §8, §6, §9

[8] = tested on: Serratia marcescens ATCC 8100; test: as above; format: cell-based
Description: as §1, §2, §3, §4, §8, §6, §9

[9] = tested on: Pseudomonas aeruginosa ATCC 15442; test: as above; format: cell-based
Description: as §1, §2, §3, §4, §8, §6, §9

[10] = tested on: Klebsiella pneumoniae ATCC 8308; test: as above; format: cell-based
Description: as §1, §2, §3, §4, §8, §6, §9

[11] = tested on: Pseudomonas aeruginosa ATCC 9027; test: as above; format: cell-based
Description: as §1, §2, §3, §4, §8, §6, §9

[12] = tested on: Escherichia coli ATCC 8739; test: as above; format: cell-based
Description: as §1, §2, §3, §4, §8, §6, §9

[13] = tested on: Proteus vulgaris ATCC 13315; test: as above; format: cell-based
Description: as §1, §2, §3, §4, §8, §6, §9

[14] = tested on: Staphylococcus aureus ATCC 6538; test: as above; format: cell-based
Description: as §1, §2, §3, §4, §8, §6, §9

[15] = tested on: Pseudomonas aeruginosa ATCC 13388; test: as above; format: cell-based
Description: as §1, §2, §3, §4, §8, §6, §9

[16] = tested on: Bacillus subtilis ATCC 6633; test: as above; format: cell-based
Description: as §1, §2, §3, §4, §8, §6, §9

Saccharomyces cerevisiae = test: as above; format: cell-based; settings: 48 h
Description: as §1, §2, §3, §4, §8, §6, §9

[17] = tested on: Candida albicans ATCC 10231; test: as above; format: cell-based
Description: as §1, §2, §3, §4, §8, §6, §9

physchem = settings: water
[18] = ATCC9480, TSA, 30° C., 72-96 h, read-out: MIC
[19] = TSA, 30° C., 72-96 h, read-out: MIC
[20] = ATCC9642, TSA, 30° C., 72-96 h, read-out: MIC
[21] = ATCC14502, TSA, 35° C., 48 h, read-out: MIC
[22] = ATCC1228, TSA, 35° C., 48 h, read-out: MIC
[23] = ATCC23355, TSA, 35° C., 48 h, read-out: MIC
[24] = ATCC8100, TSA, 35° C., 48 h, read-out: MIC
[25] = ATCC15442, TSA, 35° C., 48 h, read-out: MIC
[26] = ATCC8308, TSA, 35° C., 48 h, read-out: MIC
[27] = ATCC9027, TSA, 35° C., 48 h, read-out: MIC
[28] = ATCC8739, TSA, 35° C., 48 h, read-out: MIC
[29] = ATCC13315, TSA, 35° C., 48 h, read-out: MIC
[30] = ATCC6538, TSA, 35° C., 48 h, read-out: MIC
[31] = ATCC13388, TSA, 35° C., 48 h, read-out: MIC
[32] = ATCC6633, TSA, 35° C., 48 h, read-out: MIC
[33] = ATCC10231, TSA, 35° C., 48 h, read-out: MIC

SMILES	MIC [6]	solubility (physchem)	MIC [1, 18]	MIC [2, 19]	MIC [3, 20]	MIC [4, 21]	MIC [5, 22]	MIC (Pseudomonas stutzeri; TSA, 35° C., read-out: MIC)	MIC (Streptococcus faecalis; TSA, 35° C., read-out: MIC)	MIC [7, 23]	MIC [8, 24]	MIC [9, 25]	MIC [10, 26]	MIC [11, 27]	MIC [12, 28]	MIC [13, 29]	MIC [14, 30]	MIC [15, 31]	MIC [16, 32]	MIC (Saccharomyces cerevisiae; TSA, 35° C., read-out: MIC)	other results
CCCCOC(=O)c1ccc(O)cc1 [n-Butyl p-Hydroxybenzoate, n-butyl p-hydroxybenzoate]	500 µg/mL (≈ 2570 µM)	–	–	–	–	–	–	–	–	–	–	–	–	–	–	–	–	–	–	–	solubility (water solubility): 150 µg/mL (≈ 772 µM); MIC ([1]; ATCC9480): 63 µg/mL (≈ 324 µM); MIC [2]: 32 µg/mL (≈ 165 µM); MIC ([3]; ATCC9642): 125 µg/mL (≈ 644 µM); MIC ([4]; ATCC14502, 48 h): > 6000 µg/mL; MIC ([5]; ATCC1228, 48 h): 250 µg/mL (≈ 1290 µM); MIC (Pseudomonas stutzeri): 500 µg/mL (≈ 2570 µM); MIC (Streptococcus faecalis): 250 µg/mL (≈ 1290 µM); MIC ([7]; ATCC23355, 48 h): 250 µg/mL (≈ 1290 µM); MIC ([8]; ATCC8100, 48 h): 500 µg/mL (≈ 2570 µM); MIC ([9]; ATCC15442, 48 h): > 6000 µg/mL; MIC ([10]; ATCC8308, 48 h): 250 µg/mL (≈ 1290 µM); MIC ([11]; ATCC9027, 48 h): > 6000 µg/mL; MIC ([12]; ATCC8739, 48 h): 500 µg/mL (≈ 2570 µM); MIC ([13]; ATCC13315, 48 h): 125 µg/mL (≈ 644 µM); MIC ([14]; ATCC6538, 48 h): 125 µg/mL (≈ 644 µM); MIC ([15]; ATCC13388, 48 h): > 6000 µg/mL; MIC ([16]; ATCC6633, 48 h): 250 µg/mL (≈ 1290 µM); MIC (Saccharomyces cerevisiae): 32 µg/mL (≈ 165 µM); MIC ([17]; ATCC10231, 48 h): 125 µg/mL (≈ 644 µM)
CC(C)COC(=O)c1ccc(O)cc1 [Isobutyl p-Hydroxybenzoate, isobutyl p-hydroxybenzoate]	1000 µg/mL (≈ 5150 µM)	200 µg/mL (≈ 1030 µM)	125 µg/mL (≈ 644 µM)	63 µg/mL (≈ 324 µM)	250 µg/mL (≈ 1290 µM)	> 1000 µg/mL	250 µg/mL (≈ 1290 µM)	> 1000 µg/mL	500 µg/mL (≈ 2570 µM)	1000 µg/mL (≈ 5150 µM)	1000 µg/mL (≈ 5150 µM)	> 1000 µg/mL	500 µg/mL (≈ 2570 µM)	> 1000 µg/mL	> 1000 µg/mL	250 µg/mL (≈ 1290 µM)	250 µg/mL (≈ 1290 µM)	> 1000 µg/mL	250 µg/mL (≈ 1290 µM)	125 µg/mL (≈ 644 µM)	MIC [17, 33]: 125 µg/mL (≈ 644 µM)
CC(C)OC(=O)c1ccc(O)cc1 [Isopropyl p-Hydroxybenzoate, isopropyl p-hydroxybenzoate]	1000 µg/mL (≈ 5550 µM)	800 µg/mL (≈ 4440 µM)	< 125 µg/mL	< 125 µg/mL	250 µg/mL (≈ 1390 µM)	> 2000 µg/mL	500 µg/mL (≈ 2770 µM)	1000 µg/mL (≈ 5550 µM)	1000 µg/mL (≈ 5550 µM)	1000 µg/mL (≈ 5550 µM)	1000 µg/mL (≈ 5550 µM)	> 2000 µg/mL	500 µg/mL (≈ 2770 µM)	2000 µg/mL (≈ 11100 µM)	1000 µg/mL (≈ 5550 µM)	500 µg/mL (≈ 2770 µM)	1000 µg/mL (≈ 5550 µM)	> 2000 µg/mL	500 µg/mL (≈ 2770 µM)	< 125 µg/mL	MIC [17, 33]: 250 µg/mL (≈ 1390 µM)
